Test [1] deals with T1, Solute carrier family 22 member 7 (Rattus norvegicus, UniProt Q5RLM2).
T1 sequence (Q5RLM2 whole entry): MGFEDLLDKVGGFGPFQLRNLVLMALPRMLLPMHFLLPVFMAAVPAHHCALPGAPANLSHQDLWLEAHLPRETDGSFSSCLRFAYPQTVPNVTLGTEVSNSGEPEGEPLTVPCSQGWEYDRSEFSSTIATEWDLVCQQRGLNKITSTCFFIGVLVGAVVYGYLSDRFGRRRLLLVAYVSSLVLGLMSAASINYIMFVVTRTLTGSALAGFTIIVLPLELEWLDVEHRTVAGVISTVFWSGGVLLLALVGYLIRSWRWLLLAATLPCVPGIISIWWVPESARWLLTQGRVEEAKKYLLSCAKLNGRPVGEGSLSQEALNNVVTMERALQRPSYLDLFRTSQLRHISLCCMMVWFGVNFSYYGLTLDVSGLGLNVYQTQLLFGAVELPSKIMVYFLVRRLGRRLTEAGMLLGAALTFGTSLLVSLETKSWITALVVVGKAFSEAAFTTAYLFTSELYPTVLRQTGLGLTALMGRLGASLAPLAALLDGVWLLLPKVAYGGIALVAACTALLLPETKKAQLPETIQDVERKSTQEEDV
The experiment in a line: TP_TRANSPORTER: inhibition of PGF2alpha uptake (PGF2: 50nM) in rOAT2-expressing S2 cells. The format is functional, cell-based.

Test [2] has as its target T2, Organic anion transporter 3 (Rattus norvegicus, UniProt Q9R1U7).
T2 sequence (Q9R1U7 whole entry): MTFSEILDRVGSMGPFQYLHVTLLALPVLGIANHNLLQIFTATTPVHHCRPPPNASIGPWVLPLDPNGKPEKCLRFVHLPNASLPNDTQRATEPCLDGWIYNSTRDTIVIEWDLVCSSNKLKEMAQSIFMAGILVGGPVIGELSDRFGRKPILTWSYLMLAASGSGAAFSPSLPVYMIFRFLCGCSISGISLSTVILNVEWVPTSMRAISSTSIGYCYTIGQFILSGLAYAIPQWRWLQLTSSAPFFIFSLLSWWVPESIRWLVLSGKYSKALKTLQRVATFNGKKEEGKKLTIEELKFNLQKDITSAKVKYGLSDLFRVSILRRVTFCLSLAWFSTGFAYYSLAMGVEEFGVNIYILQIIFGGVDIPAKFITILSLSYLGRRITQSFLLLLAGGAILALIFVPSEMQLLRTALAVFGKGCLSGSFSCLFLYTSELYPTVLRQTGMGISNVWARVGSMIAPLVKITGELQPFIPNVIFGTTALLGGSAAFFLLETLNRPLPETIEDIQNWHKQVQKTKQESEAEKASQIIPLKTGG
Description: TP_TRANSPORTER: inhibition of ES uptake (ES: 50nM) in rOAT3-expressing S2 cells. The class given is functional, cell-based.

Test [3] deals with T3, Solute carrier family 22 member 7 (Homo sapiens, UniProt Q9Y694).
T3 sequence (Q9Y694 whole entry): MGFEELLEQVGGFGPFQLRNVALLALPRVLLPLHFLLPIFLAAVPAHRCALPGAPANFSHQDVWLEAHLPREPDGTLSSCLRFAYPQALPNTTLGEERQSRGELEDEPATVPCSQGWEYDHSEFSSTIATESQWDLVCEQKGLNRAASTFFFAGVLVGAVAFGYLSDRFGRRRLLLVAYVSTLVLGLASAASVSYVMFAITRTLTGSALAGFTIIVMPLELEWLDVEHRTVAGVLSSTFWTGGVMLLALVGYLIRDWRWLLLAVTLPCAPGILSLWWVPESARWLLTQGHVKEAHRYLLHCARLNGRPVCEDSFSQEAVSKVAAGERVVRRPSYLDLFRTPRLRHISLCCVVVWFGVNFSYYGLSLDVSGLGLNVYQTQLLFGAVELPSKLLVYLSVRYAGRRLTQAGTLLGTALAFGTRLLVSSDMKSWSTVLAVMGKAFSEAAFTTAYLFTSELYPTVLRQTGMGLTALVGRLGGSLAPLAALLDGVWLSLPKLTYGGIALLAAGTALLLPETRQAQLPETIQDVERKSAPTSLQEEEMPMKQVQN
Description: TP_TRANSPORTER: inhibition of PGF2alpha uptake (PGF2: 50nM) in hOAT2-expressing S2 cells. The format is functional, cell-based.

Test [4] has as its target T4, Organic anion transporter 3 (Homo sapiens, UniProt Q8TCC7).
T4 sequence (Q8TCC7 whole entry): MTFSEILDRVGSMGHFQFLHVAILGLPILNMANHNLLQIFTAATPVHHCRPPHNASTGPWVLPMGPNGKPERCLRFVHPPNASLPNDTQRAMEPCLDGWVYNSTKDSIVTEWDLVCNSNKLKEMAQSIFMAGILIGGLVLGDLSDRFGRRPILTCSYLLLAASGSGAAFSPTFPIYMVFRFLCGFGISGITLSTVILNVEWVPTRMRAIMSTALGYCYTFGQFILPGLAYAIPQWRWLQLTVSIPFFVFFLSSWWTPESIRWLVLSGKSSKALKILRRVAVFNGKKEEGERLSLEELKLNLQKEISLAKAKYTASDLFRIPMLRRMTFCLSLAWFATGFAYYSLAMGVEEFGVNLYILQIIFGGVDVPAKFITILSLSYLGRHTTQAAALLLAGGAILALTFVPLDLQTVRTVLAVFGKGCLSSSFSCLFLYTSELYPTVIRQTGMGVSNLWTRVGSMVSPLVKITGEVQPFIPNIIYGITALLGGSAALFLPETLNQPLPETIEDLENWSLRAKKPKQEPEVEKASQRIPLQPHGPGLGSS
Description: TP_TRANSPORTER: inhibition of ES uptake (ES: 50nM) in hOAT3-expressing S2 cells. The format is functional, cell-based.

Test [5] has as its target T5, Solute carrier family 22 member 11 (Homo sapiens, UniProt Q9NSA0).
T5 sequence (Q9NSA0 whole entry): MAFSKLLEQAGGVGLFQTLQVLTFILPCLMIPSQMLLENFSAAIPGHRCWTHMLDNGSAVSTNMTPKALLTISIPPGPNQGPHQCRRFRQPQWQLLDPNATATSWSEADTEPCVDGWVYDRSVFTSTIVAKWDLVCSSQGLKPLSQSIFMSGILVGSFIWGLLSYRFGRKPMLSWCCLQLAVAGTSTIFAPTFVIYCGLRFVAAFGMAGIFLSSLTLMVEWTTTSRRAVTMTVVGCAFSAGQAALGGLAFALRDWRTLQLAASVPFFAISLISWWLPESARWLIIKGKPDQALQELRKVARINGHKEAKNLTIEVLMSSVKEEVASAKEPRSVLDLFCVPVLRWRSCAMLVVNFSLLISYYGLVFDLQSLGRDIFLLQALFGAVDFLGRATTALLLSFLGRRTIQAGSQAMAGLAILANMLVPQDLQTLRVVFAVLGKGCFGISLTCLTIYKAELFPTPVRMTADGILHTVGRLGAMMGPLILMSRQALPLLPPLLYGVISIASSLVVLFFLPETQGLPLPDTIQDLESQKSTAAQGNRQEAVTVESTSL
Description: TP_TRANSPORTER: inhibition of ES uptake (ES: 50nM) in hOAT4-expressing S2 cells. The class given is functional, cell-based.

The target of test [6] is T6, Solute carrier family 22 member 6 (Rattus norvegicus, UniProt O35956).
T6 sequence (O35956 whole entry): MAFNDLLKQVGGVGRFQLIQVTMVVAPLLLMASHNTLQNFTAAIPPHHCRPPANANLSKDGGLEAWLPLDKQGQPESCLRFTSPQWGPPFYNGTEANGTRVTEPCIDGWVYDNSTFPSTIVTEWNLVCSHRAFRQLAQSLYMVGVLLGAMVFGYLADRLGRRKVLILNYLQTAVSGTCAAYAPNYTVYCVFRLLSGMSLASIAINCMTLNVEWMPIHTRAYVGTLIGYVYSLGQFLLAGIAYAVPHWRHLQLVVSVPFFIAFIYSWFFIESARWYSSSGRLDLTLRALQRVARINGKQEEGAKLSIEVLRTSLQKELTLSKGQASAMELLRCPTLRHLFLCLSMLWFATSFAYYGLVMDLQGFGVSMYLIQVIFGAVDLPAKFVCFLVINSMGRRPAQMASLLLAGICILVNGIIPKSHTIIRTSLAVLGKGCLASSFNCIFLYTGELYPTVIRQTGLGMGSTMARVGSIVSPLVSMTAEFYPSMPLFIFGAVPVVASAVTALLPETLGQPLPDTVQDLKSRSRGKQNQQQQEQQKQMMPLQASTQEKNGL

The record followed here is ChEMBL document CHEMBL2074482 (J Pharmacol Sci, 2004).

pIC50: −log10 of the molar value. Where only a bound is given, the exact number is not on record here.

In the case of `CCCN(CCC)S(=O)(=O)c1ccc(C(=O)O)cc1` [PROBENECID], the values for the pIC50 in test [1], in test [2] and in test [3] were 3.01, 5.22 and 3.18, respectively.

As to `CC[C@H](C)C(=O)O[C@H]1C[C@H](O)C=C2C=C[C@H](C)[C@H](CC[C@@H](O)C[C@@H](O)CC(=O)O)[C@H]21` [PRAVASTATIN], the negative-log IC50 (pIC50) (commonly −log10 of the IC50, conventionally taken in molar units) in test [1] is 3.35; in test [2] it was 4.81; in test [4], 4.86; in test [3], 3.45; in test [5] it was 3.23.

As for `CC1(C)C[C@@H]1C(=O)N/C(=C\CCCCSC[C@H](N)C(=O)O)C(=O)O` [CILASTATIN], the pIC50 is 3.13 in test [2] and 3.60 in test [4].

In the case of `O=C(O)CCNC(=O)c1ccccc1` [BETAMIPRON], the pIC50 is 4.32 in test [2], 5.00 in test [4] and 3.32 in test [5].

As to `CN/C(=N/CCSCc1nc[nH]c1C)NC#N` [CIMETIDINE], the pIC50 in test [2] is 3.78; in test [4], 4.03; in test [5] it was less than 2.70; in test [6] it was less than 2.70.
